Data: a compilation of properties of binary mixtures (doi:10.1016/j.molliq.2013.09.012)

Test: xn = mol fraction of the nth substance listed
Details: 298.15 K, 101 kPa

SMILES | viscosity (x2 = 0) [mPa·s] | viscosity (x2 = 0.1) [mPa·s] | viscosity (x2 = 0.1449) [mPa·s] | viscosity (x2 = 0.4008) [mPa·s] | viscosity (x2 = 0.4992) [mPa·s] | viscosity (x2 = 0.6009) [mPa·s] | viscosity (x2 = 0.7007) [mPa·s] | viscosity (x2 = 0.8983) [mPa·s] | viscosity (x1 = 0.1949) [mPa·s] | viscosity (x1 = 0.2959) [mPa·s] | viscosity (x1 = 0.3803) [mPa·s] | viscosity (x1 = 0.5991) [mPa·s] | viscosity (x1 = 0.7005) [mPa·s] | viscosity (x1 = 0.8066) [mPa·s] | viscosity (x1 = 1) [mPa·s]
CCCCCC[n+]1ccn(C)c1.F[B-](F)(F)F + CC(C)(C)O | 171.8 | 131.4 | 115.6 | 49.8 | 34.1 | 23.3 | 18 | 11 |  |  |  |  |  |  | 
CCCN + CCCCCC[n+]1ccn(C)c1.F[B-](F)(F)F |  |  |  |  |  |  |  |  | 97.3 | 69.2 | 50.3 | 17.7 | 10.1 | 4.466 | 0.358
CC(C)(C)O + CCCCCC[n+]1ccn(C)c1.F[B-](F)(F)F |  |  |  |  |  |  |  |  |  |  |  |  |  |  | 4.444
